In PMC9020739, “Identification of a two-component regulatory system involved in antimicrobial peptide resistance in Streptococcus pneumoniae” (PLoS Pathogens, 2022):
In brackets after ≈: the same amount, converted by molar mass.

Assays:
[1] = molecular target: BceAB transporter from S. pneumoniae (Streptococcus pneumoniae, UniProt A0A0H2ZN40); assay type: biochemical; settings: BceAB proteoliposomes; Fig 7B; triplicates, representative of at least two experiments
Method: (§1) E. coli BL21(DE3) cells were transformed with pRSF-Duet1-BceAB WT, K48A or E170Q and selected on LB-agar plates containing 50 μg/mL kanamycin. One colony was inoculated into in 2L-baffled flasks containing 500 mL of 2YT medium and 50 μg/mL kanamycin and grown at 37°C, 180 rpm to OD600 of 0.6. Protein expression was induced by adding IPTG to a final concentration of 1 mM. Induction was performed overnight at 25°C and cells were harvested by centrifugation at 7,000 g for 20 min.
(§2) Cells were resuspended in buffer A (HEPES-NaOH 100 mM pH 8.0, NaCl 150 mM) and lysed by passaging them three times through a cell disruptor (Microfluidizer, Microfluidics) at 18,000 psi (or 1,24 x 108 Pa). Undisrupted cells and cell debris were removed by centrifugation at 15,000 x g for 30 min at 4°C. Membranes were harvested from the supernatant after ultracentrifugation at 150,000 x g for 1 h at 4°C. Membranes were resuspended in 20 mL of buffer A and centrifuged once again at 150,000 x g for 1 h at 4°C. Membrane pellets were homogenized in buffer HEPES-NaOH 100 mM pH 8.0, NaCl 150 mM and 20% glycerol, and stored at -80°C.
(§3) For the purification of BceAB, membranes from 0,5 L cell culture were diluted in buffer B (100 mM d’HEPES-NaOH pH 8, 150 mM NaCl, 10% glycerol) to a protein concentration of 4 mg/mL and solubilized with 0.5% (w/v) LMNG for 2 h at 4°C. After ultracentrifugation at 150,000 x g for 1 h at 4°C, the supernatant containing solubilized proteins was diluted four times using buffer B and loaded on Ni^2+-charged immobilized metal-ion affinity chromatography (IMAC) column (1 mL HisTrap HP, Cytiva). The column was washed with 10 mL of buffer B containing 0.005% (w/v) LMNG and 20 mM of imidazole. The column was further washed with the same buffer until OD280nm reached basal levels. BceAB was eluted by buffer B containing 0.005% (w/v) LMNG and an imidazole gradient from 20 to 500 mM of imidazole. Purified BceAB was dialyzed into buffer B containing 0.005% (w/v) LMNG and stored at -80°C.
(§4) The proteoliposomes were prepared as previously described for the transporter BmrA [50]. Proteoliposomes were loaded on sucrose gradient with different layers of 400 μL of 50 mM HEPES-KOH pH 8.0 buffer containing 30, 20, 15 or 10% of sucrose. One mL of proteoliposomes was loaded on the top of the sucrose gradient and ultra-centrifuged at 200,000 x g for 12 h at 4°C. Proteoliposomes were typically collected from the 15% layer and were loaded on SDS-PAGE to analyze and quantify the presence of BceAB by using a standard-curve of purified BceAB and ImageJ.
(§5) These activities were performed as previously described.

S. pneumoniae R6 Δtcs01 = assay type: cell-based, Streptococcus pneumoniae; settings: R6 strain; 2-fold broth dilution, Todd-Hewitt medium, 37°C, 15 h; two to four biological replicates, each technical duplicates
Method: (§6) The MIC of various antimicrobial peptides for R6, R800 and D39 strains was determined by classical 2-fold broth dilution method. Cells were first grown in Todd-Hewitt medium at 37°C without agitation and in anaerobic conditions until the absorbance reaches approximatively 0.3. Complementation strains were grown with 0.5 μM ComS inducer until the appropriate OD. Cells were then diluted at final OD600nm = 0.002 in 96-well plates containing 300 μL of Todd-Hewitt medium (and 2 μM ComS inducer for the complementation strains) with serial dilutions of antimicrobial peptides. Pneumococcal growth was monitored by a microplate reader (TECAN) at 37°C without agitation. The absorbance was followed at 600 nm every 15 min for 15 h.

[2] = tested on: S. pneumoniae R800 ΔbceAB; assay type: cell-based, Streptococcus pneumoniae; settings: R800 strain; 2-fold broth dilution, Todd-Hewitt medium, 37°C, 15 h; at least biological triplicates, each technical duplicates
Method: as §6

[3] = tested on: S. pneumoniae R6 ΔbceAB/tcs01; assay type: cell-based, Streptococcus pneumoniae; settings: R6 strain; 2-fold broth dilution, Todd-Hewitt medium, 37°C, 15 h; two to four biological replicates, each technical duplicates
Method: as §6

[4] = tested on: S. pneumoniae R800 bceAB-gfp; assay type: cell-based, Streptococcus pneumoniae; settings: R800 strain; 2-fold broth dilution, Todd-Hewitt medium, 37°C, 15 h; at least biological triplicates, each technical duplicates
Method: as §6

S. pneumoniae D39 ΔbceAB = assay type: cell-based, Streptococcus pneumoniae; settings: D39 strain; 2-fold broth dilution, Todd-Hewitt medium, 37°C, 15 h; two to four biological replicates, each technical duplicates
Method: as §6

[5] = tested on: S. pneumoniae R800 ΔbceAB-Δhk01-PcomX-hk01; assay type: cell-based, Streptococcus pneumoniae; settings: R800 complementation strain, 2 μM ComS inducer; 2-fold broth dilution, Todd-Hewitt medium, 37°C, 15 h; at least biological triplicates, each technical duplicates
Method: as §6

S. pneumoniae R6 WT = assay type: cell-based, Streptococcus pneumoniae; settings: R6 strain
Method: as §6

S. pneumoniae D39 WT = assay type: cell-based, Streptococcus pneumoniae; settings: D39 strain
Method: as §6

S. pneumoniae D39 Δtcs01 = assay type: cell-based, Streptococcus pneumoniae; settings: D39 strain; 2-fold broth dilution, Todd-Hewitt medium, 37°C, 15 h; two to four biological replicates, each technical duplicates
Method: as §6

S. pneumoniae R800 Δhk01 = assay type: cell-based, Streptococcus pneumoniae; settings: R800 strain; 2-fold broth dilution, Todd-Hewitt medium, 37°C, 15 h; at least biological triplicates, each technical duplicates
Method: as §6

S. pneumoniae R6 ΔbceAB = assay type: cell-based, Streptococcus pneumoniae; settings: R6 strain; 2-fold broth dilution, Todd-Hewitt medium, 37°C, 15 h; two to four biological replicates, each technical duplicates
Method: as §6

S. pneumoniae R800 WT = assay type: cell-based, Streptococcus pneumoniae; settings: R800 strain; 2-fold broth dilution, Todd-Hewitt medium, 37°C, 15 h; at least biological triplicates, each technical duplicates
Method: as §6

[6] = tested on: S. pneumoniae D39 ΔbceAB/tcs01; assay type: cell-based, Streptococcus pneumoniae; settings: D39 strain; 2-fold broth dilution, Todd-Hewitt medium, 37°C, 15 h; two to four biological replicates, each technical duplicates
Method: as §6

[7] = tested on: S. pneumoniae R800 Δhk01-PcomX-hk01; assay type: cell-based, Streptococcus pneumoniae; settings: R800 complementation strain, 2 μM ComS inducer; 2-fold broth dilution, Todd-Hewitt medium, 37°C, 15 h; at least biological triplicates, each technical duplicates
Method: as §6

[8] = tested on: bceAB and tcs01 genes in S. pneumoniae D39 WT; test: Quantification of gene expression by qPCR; assay type: cell-based, Streptococcus pneumoniae; settings: D39 wild-type; vancomycin 375 ng/ml for 15 min; n = 8
Method: S. pneumoniae D39 WT and Δtcs01 strains were routinely grown to OD600nm = 0.3 in THY. Then 1 μg/mL of bacitracin was added to the growth media for up to 30 min. Samples were taken at time points shown in the results section. Next, the cultures were mixed with RNA protect (Qiagen) at 1:1 ratio and incubated at room temperature for 5 min and centrifuged for 10 min at 3, 200 g at 4°C. The supernatant was decanted and the pellet was stored at -80°C. The bacteria were resuspended in 100 μL of sterile Tris-EDTA (TE), containing 15 mg/mL lysozyme (Sigma) then 20 μL of Proteinase K (20 mg/mL) (Roche) were added. The sample was vortexed 5 times for 10 sec at two-minutes intervals. Then 350 μL of lysis buffer from the Nucleospin RNA kit (Macherey-Nagel) were added to the sample with 3.5 μL of β-mercaptoethanol and 25 mg of glass beads (Sigma). The cells were lysed by continual vortexing for 5 min. The mRNA was extracted according to the manufacturer’s instructions. After elution, RNA samples were incubated with 5 μL of DNAse for 20 min at room temperature, then inactivated by heating for 70°C for 5 min. RNA concentration was measured using Nanovue (GE Healthcare). For cDNA synthesis 1 μg of RNA was generally used with the SuperScript III kit (Invitrogen) containing a reverse transcriptase, a set of primers, dNTPs, MgCl2 random hexamers and […] after the cDNA generation according to manufacturer’s instructions. Samples were then stored at -20°C. qPCR measurements were done with 2.5 μL of cDNA mixed with 1 μL (3 μM final) of forward and reverse primers, 5 μL iQ SYBR Green Supermix (BioRad) and 0.5 μL water using the CFX Connect Optical Module (BioRad) program as follows: 95°C for 3 min, then a repeat 40 times of 95°C for 10 sec, 55°C for 30 sec, and a fluorescence reading.

[9] = tested on: Nc1nc2c(ncn2[C@@H]2O[C@H](COP(=O)(O)OP(=O)(O)OP(=O)(O)O)[C@@H](O)[C@H]2O)c(=O)[nH]1; test: purified protein, by the assay type; assay type: biochemical, Streptococcus pneumoniae; settings: other: ATPase/GTPase activity as a function of nucleotide concentration, fitted with positive cooperativity; proteoliposomes; pH 8.0
Method: as §1, §2, §3, §4, §5

[10] = tested on: Nc1ncnc2c1ncn2[C@@H]1O[C@H](COP(=O)(O)OP(=O)(O)OP(=O)(O)O)[C@@H](O)[C@H]1O; test: purified protein, by the assay type; assay type: biochemical, Streptococcus pneumoniae; settings: other: ATPase/GTPase activity as a function of nucleotide concentration, fitted with positive cooperativity; proteoliposomes; pH 8.0
Method: as §1, §2, §3, §4, §5

[11] = tested on: S. pneumoniae R6 WT and mutant strains; test: Susceptibility to HNP-1 (colony counts); assay type: cell-based, Streptococcus pneumoniae; settings: R6 WT versus mutant strains, 5, 10 or 20 μg/ml, 30 min, 1 h or 2 h, 37°C, preliminary work (S7 Fig)
Method: Bacterial cells were routinely grown until OD600nm = 0.3 in THY and 5 mL of culture were centrifuged for 10 min at 5,000 g at 4°C. The pellet was resuspended in 5 ml of sterile PBS buffer and diluted twice at 1/100. 200 μl of the final dilution was incubated for 30 min, 1 h or 2 h at 37°C, 5% CO2 in 96-well plate with 5, 10 or 20 μg/ml of hNP1. Next, 10 μl from the final dilution (control cells at time zero in the absence of HNP-1) and the 96-well plate (cells incubated with HNP1) were plated onto pre-cast THY-agar medium supplemented with 4% defibrinated horse blood and incubated overnight at 37°C, […]. The next day, colonies were counted.

Compound: CN[C@H](CC(C)C)C(=O)N[C@H]1C(=O)N[C@@H](CC(N)=O)C(=O)N[C@H]2C(=O)N[C@H]3C(=O)N[C@H](C(=O)N[C@H](C(=O)O)c4cc(O)cc(O)c4-c4cc3ccc4O)[C@H](O)c3ccc(c(Cl)c3)Oc3cc2cc(c3O[C@@H]2O[C@H](CO)[C@@H](O)[C@H](O)[C@H]2O[C@H]2C[C@](C)(N)[C@H](O)[C@H](C)O2)Oc2ccc(cc2Cl)[C@H]1O [vancomycin]
- Effect on ATPase activity of BceAB [1]: did not significantly affect
- Minimum Inhibitory Concentration, Δtcs01 (S. pneumoniae R6 Δtcs01): 0.5 µg/mL
- MIC, ΔbceAB [2]: 0.25 µg/mL (≈ 0.173 µM)
- Minimum Inhibitory Concentration, ΔbceAB/tcs01 [3]: 0.5 µg/mL
- MIC, bceAB-gfp [4]: 0.25 µg/mL (≈ 0.173 µM)
- Minimum Inhibitory Concentration, ΔbceAB (S. pneumoniae D39 ΔbceAB): 0.25 µg/mL
- MIC, ΔbceAB-Δhk01-PcomX-hk01 [5]: 0.25 µg/mL (≈ 0.173 µM)
- Minimum Inhibitory Concentration, WT (S. pneumoniae R6 WT; 2-fold broth dilution, Todd-Hewitt medium, 96-well plates, start OD600 0.002, 37°C, A600 followed 15 h, two to four biological replicates, each technical duplicates): 0.5 µg/mL
- Fold sensitivity displayed by the KO strains (S. pneumoniae R6 WT; KO strains versus WT MIC): 1
- Minimum Inhibitory Concentration, WT (S. pneumoniae D39 WT; 2-fold broth dilution, Todd-Hewitt medium, 37°C, 15 h, two to four biological replicates, each technical duplicates): 0.25 µg/mL
- Fold sensitivity diplayed by the KO strains (S. pneumoniae D39 WT; KO strains versus WT MIC): 1
- Minimum Inhibitory Concentration, Δtcs01 (S. pneumoniae D39 Δtcs01): 0.25 µg/mL
- MIC, Δhk01 (S. pneumoniae R800 Δhk01): 0.25 µg/mL (≈ 0.173 µM)
- Minimum Inhibitory Concentration, ΔbceAB (S. pneumoniae R6 ΔbceAB): 0.5 µg/mL
- MIC, WT (S. pneumoniae R800 WT): 0.25 µg/mL (≈ 0.173 µM)
- Minimum Inhibitory Concentration, ΔbceAB/tcs01 [6]: 0.25 µg/mL
- MIC, Δhk01-PcomX-hk01 [7]: 0.25 µg/mL (≈ 0.173 µM)
- Transcription of the bceAB genes [8]: no upregulation

Compound: BceAB transporter from S. pneumoniae (Streptococcus pneumoniae D39)
- Km [9]: 1300 µM
- Km [10]: 1000 µM

Compound: HNP1: human neutrophil defensin HNP1; purchased from Vivitide
- Resistance promoted by BceAB [11]: does not promote resistance
